Where two headings read alike, the source gives them in different places.
Legend:
Format in all cases: in vivo
[1] = tested on: Red Spider Mite (Tetranychus kanzawai); assay: Red spider mite sprayed cowpea bean test; conditions: 72 h, read-out: mortality in comparison with untreated controls
Method: B.9 Red Spider Mite (Tetranychus kanzawai)
The active compound was dissolved at the desired concentration in a mixture of 1:1 (vol:vol) distilled water: acetone. Add surfactant (Kinetic HV) was added at a rate of 0.01% (vol/vol).The test solution was prepared at the day of use.
Potted cowpea beans of 4-5 days of age were cleaned with tap water and sprayed with 1-2 ml of the test solution using air driven hand atomizer. The treated plants were allowed to air dry and afterwards inoculated with 30 or more mites by clipping a cassava leaf section from rearing population. Treated plants were placed inside a holding room at about 25-27° C. and about 50-60% relative humidity. Percent mortality was assessed 72 hours after treatment.

[2] = tested on: Orchid Thrips (Dichromothrips corbetti); assay: Orchid thrips floral-immersion test; conditions: 72 h, read-out: mortality in comparison with untreated controls
Method: B.7 Orchid Thrips (Dichromothrips corbetti)
Dichromothrips corbetti adults used for bioassay were obtained from a colony maintained continuously under laboratory conditions. For testing purposes, the test compound is diluted in a 1:1 mixture of acetone:water (vol:vol), plus Kinetic HV at a rate of 0.01% v/v.
Thrips potency of each compound was evaluated by using a floral-immersion technique. All petals of individual, intact orchid flowers were dipped into treatment solution and allowed to dry in Petri dishes. Treated petals were placed into individual re-sealable plastic along with about 20 adult thrips. All test arenas were held under continuous light and a temperature of about 28° C. for duration of the assay. After 3 days, the numbers of live thrips were counted on each petal. The percent mortality was recorded 72 hours after treatment.

[3] = tested on: Southern Armyworm (Spodoptera eridania); assay: Southern armyworm sprayed lima bean test; conditions: 96 h, read-out: mortality in comparison with untreated controls
Method: B.10 Southern Armyworm (Spodoptera eridania)
The active compounds were formulated in cyclohexanone as a 10,000 ppm solution supplied in tubes. The tubes were inserted into an automated electrostatic sprayer equipped with an atomizing nozzle and they served as stock solutions for which lower dilutions were made in 50% acetone:50% water (v/v). A nonionic surfactant (Kinetic®) was included in the solution at a volume of 0.01% (v/v).
Lima bean plants (variety Sieva) were grown 2 plants to a pot and selected for treatment at the 1st true leaf stage. Test solutions were sprayed onto the foliage by an automated electrostatic plant sprayer equipped with an atomizing spray nozzle. The plants were dried in the sprayer fume hood and then removed from the sprayer. Each pot was placed into perforated plastic bags with a zip closure. About 10 to 11 armyworm larvae were placed into the bag and the bags zipped closed. Test plants were maintained in a growth room at about 25° C. and about 20-40% relative humidity for 4 days, avoiding direct exposure to fluorescent light (24 hour photoperiod) to prevent trapping of heat inside the bags. Mortality and reduced feeding were assessed 4 days after treatment, compared to untreated control plants.

[4] = tested on: Green Peach Aphid (Myzus persicae); assay: Green peach aphid systemic artificial diet test; conditions: 72 h, read-out: mortality in comparison with untreated controls
From the text: B.2 Green Peach Aphid (Myzus persicae)
For evaluating control of green peach aphid (Myzus persicae) through systemic means the test unit consisted of 96-well-microtiter plates containing liquid artificial diet under an artificial membrane.
The compounds were formulated using a solution containing 75% v/v water and 25% v/v DMSO. Different concentrations of formulated compounds were pipetted into the aphid diet, using a custom built pipetter, at two replications.
After application, 5-8 adult aphids were placed on the artificial membrane inside the microtiter plate wells. The aphids were then allowed to suck on the treated aphid diet and incubated at about 23±1° C. and about 50±5% relative humidity for 3 days. Aphid mortality and fecundity was then visually assessed.

[5] = tested on: Vetch Aphid (Megoura viciae); assay: Vetch aphid leaf disk test; conditions: foliar, 120 h, read-out: mortality in comparison with untreated controls
Method: B.3 Vetch Aphid (Megoura viciae)
For evaluating control of vetch aphid (Megoura viciae) through contact or systemic means the test unit consisted of 24-well-microtiter plates containing broad bean leaf disks.
The compounds were formulated using a solution containing 75% v/v water and 25% v/v DMSO. Different concentrations of formulated compounds were sprayed onto the leaf disks at 2.5 μl, using a custom built micro atomizer, at two replications.
After application, the leaf disks were air-dried and 5-8 adult aphids placed on the leaf disks inside the microtiter plate wells. The aphids were then allowed to suck on the treated leaf disks and incubated at about 23±1° C. and about 50±5% relative humidity for 5 days. Aphid mortality and fecundity was then visually assessed.

[6] = tested on: Rice Green Leafhopper (Nephotettix virescens); assay: Rice green leafhopper sprayed rice seedling test; conditions: 72 h, read-out: mortality in comparison with untreated controls
Method: B.8 Rice Green Leafhopper (Nephotettix virescens)
Rice seedlings were cleaned and washed 24 hours before spraying. The active compounds were formulated in 1:1 acetone:water (vol:vol), and 0.01% vol/vol surfactant (Kinetic HV) was added. Potted rice seedlings were sprayed with 5-6 ml test solution, air dried, covered with Mylar cages and inoculated with 10 adults. Treated rice plants were kept at about 28-29° C. and relative humidity of about 50-60%. Percent mortality was recorded after 72 hours.

[7] = tested on: Diamond Back Moth (Plutella xylostella); assay: Diamond back moth leaf-dip test; conditions: read-out: mortality in comparison with untreated controls
Method: B.1 Diamond Back Moth (Plutella xylostella)
The active compound was dissolved at the desired concentration in a mixture of 1:1 (vol:vol) distilled water: aceteone. Surfactant (Kinetic HV) was added at a rate of 0.01% (vol/vol).The test solution was prepared at the day of use.
Leaves of cabbage were dipped in test solution and air-dried. Treated leaves were placed in petri dishes lined with moist filter paper and inoculated with ten 3rd instar larvae. Mortality was recorded 72 hours after treatment. Feeding damages were also recorded using a scale of 0-100%.

[8] = tested on: Tobacco Budworm (Heliothis virescens); assay: Tobacco budworm insect diet test; conditions: 120 h, read-out: mortality in comparison with untreated controls
Method: B.4 Tobacco Budworm (Heliothis virescens)
For evaluating control of tobacco budworm (Heliothis virescens) the test unit consisted of 96-well-microtiter plates containing an insect diet and 15-25 H. virescens eggs.
The compounds were formulated using a solution containing 75% v/v water and 25% v/v DMSO. Different concentrations of formulated compounds were sprayed onto the insect diet at 10 μl, using a custom built micro atomizer, at two replications.
(§1) After application, microtiter plates were incubated at about 28±1° C. and about 80±5% relative humidity for 5 days. Egg and larval mortality was then visually assessed.

[9] = tested on: Green Soldier Stink Bug (Nezara viridula); assay: Green soldier stink bug soybean pod spray test; conditions: 120 h, read-out: mortality in comparison with untreated controls
Method: B.11 Green Soldier Stink Bug (Nezara viridula)
(§2) The active compound was dissolved at the desired concentration in a mixture of 1:1 (vol:vol) distilled water: acetone. Surfactant (Kinetic HV) was added at a rate of 0.01% (vol/vol).The test solution was prepared at the day of use.
Soybean pods were placed in glass Petri dishes lined with moist filter paper and inoculated with ten late 3rd instar N. viridula. Using a hand atomizer, approximately 2 ml solution is sprayed into each Petri dish. Assay arenas were kept at about 25° C. Percent mortality was recorded after 5 days.

[10] = tested on: Mediterranean Fruitfly (Ceratitis capitata); assay: Mediterranean fruitfly insect diet test; conditions: 120 h, read-out: mortality in comparison with untreated controls
Method: B.6 Mediterranean Fruitfly (Ceratitis capitata)
For evaluating control of Mediterranean fruitfly (Ceratitis capitata) the test unit consisted of microtiter plates containing an insect diet and 50-80 C. capitata eggs. The compounds were formulated using a solution containing 75% v/v water and 25% v/v DMSO. Different concentrations of formulated compounds were sprayed onto the insect diet at 5 μl, using a custom built micro atomizer, at two replications.
as §1

[11] = tested on: Neotropical Brown Stink Bug (Euschistus heros); assay: Neotropical brown stink bug soybean pod spray test; conditions: 120 h, adults on soybean pods, sprayed, after 5 days, read-out: mortality in comparison with untreated controls
Method: B.12 Neotropical Brown Stink Bug (Euschistus heros)
as §2
Soybean pods were placed in microwavable plastic cups and inoculated with ten adult stage E. heros. Using a hand atomizer, approximately 1 ml solution is sprayed into each cup, insects and food present. A water source was provided (cotton wick with water). Each treatment was replicated 2-fold. Assay arenas were kept at about 25° C. Percent mortality was recorded after 5 days.

[12] = tested on: Boll Weevil (Anthonomus grandis); assay: Boll weevil insect diet test; conditions: 120 h, read-out: mortality in comparison with untreated controls
Method: B.5 Boll Weevil (Anthonomus grandis)
For evaluating control of boll weevil (Anthonomus grandis) the test unit consisted of 96-well-microtiter plates containing an insect diet and 5-10 A. grandis eggs.
The compounds were formulated using a solution containing 75% v/v water and 25% v/v DMSO. Different concentrations of formulated compounds were sprayed onto the insect diet at 5 μl, using a custom built micro atomizer, at two replications.
After application, microtiter plates were incubated at about 25±1° C. and about 75±5% relative humidity for 5 days. Egg and larval mortality was then visually assessed.

[13] = 2500 ppm, egg and larval mortality on sprayed insect diet, 5 days

CC(=O)NCc1ccc(C2=NOC(c3cc(Cl)c(F)c(Cl)c3)(C(F)(F)F)C2)c2c1CCC2 (stereo not drawn) [Compound 1-4, N-[[7-[5-(3,5-Dichloro-4-fluoro-phenyl)-5-(trifluoromethyl)-4H-isoxazol-3-yl]indan-4-yl]methyl]acetamide]
≥ 75%: mortality at 300 ppm [1] | mortality at 300 ppm [2] | mortality at 10 ppm [3] | mortality at 2500 ppm [4] | mortality at 2500 ppm [5] | mortality at 300 ppm [6] | mortality at 300 ppm ([7]; in Brassica oleracea, 72 h) | mortality at 2500 ppm [8] | mortality at 300 ppm [9] | mortality at 2500 ppm [10] | mortality at 100 ppm [11] | mortality at 2500 ppm [12]

O=C(NCC(F)(F)F)N/N=C/c1ccc(C2=NOC(c3cc(Cl)c(F)c(Cl)c3)(C(F)(F)F)C2)c2c1CCC2 (stereo not drawn) [Compound 2-3, 1-[(E)-[7-[5-(3,5-Dichloro-4-fluoro-phenyl)-5-(trifluoromethyl)-4H-isoxazol-3-yl]indan-4-yl]methyleneamino]-3-(2,2,2-trifluoroethyl)urea]
≥ 75%: mortality at 300 ppm [1] | mortality at 300 ppm [2] | mortality at 2500 ppm [4] | mortality at 2500 ppm [5] | mortality at 300 ppm ([7]; in Brassica oleracea, 72 h) | mortality at 2500 ppm [8] | mortality at 2500 ppm [10] | mortality at 2500 ppm [12]

Fc1c(Cl)cc(C2(C(F)(F)F)CC(c3ccc(-n4cncn4)c4c3CCC4)=NO2)cc1Cl (stereo not drawn) [Compound 4-1, 5-(3,5-Dichloro-4-fluoro-phenyl)-3-[7-(1,2,4-triazol-1-yl)indan-4-yl]-5-(trifluoromethyl)-4H-isoxazole]
≥ 75%: mortality at 300 ppm [2] | mortality at 300 ppm [6] | mortality at 300 ppm ([7]; in Brassica oleracea, 72 h)

O=C(NCC(F)(F)F)N/N=C/c1ccc(C2=NCC(c3cc(Cl)cc(Cl)c3)(C(F)(F)F)C2)c2c1CCC2 (stereo not drawn) [Compound 3-1, 1-[(E)-[7-[3-(3,5-Dichlorophenyl)-3-(trifluoromethyl)-2,4-dihydropyrrol-5-yl]indan-4-yl]methyleneamino]-3-(2,2,2-trifluoroethyl)urea]
≥ 75%: mortality at 10 ppm ([3]; 10 ppm, larvae on sprayed lima bean plants, 4 days after treatment) | mortality at 2500 ppm ([4]; 2500 ppm, adult aphids on treated artificial diet, 3 days) | mortality at 2500 ppm ([5]; 2500 ppm, adult aphids on sprayed broad bean leaf disks, 5 days) | mortality at 300 ppm ([7]; 300 ppm, cabbage leaves dipped, 3rd instar larvae, 72 hours after treatment) | mortality at 2500 ppm [8, 13] | mortality at 2500 ppm [10, 13] | mortality at 2500 ppm [12, 13]

— patent publication US10085448B2, “Azoline compounds substituted by a carbocyclic condensed ring system” (BASF SE, priority 2014, dated 2018)
